In patent publication US20260007625A1, “Compounds for the Treatment of Neuromuscular Disorders” (NMD PHARMA A/S, priority 2022, published 2026):

Key:
[1] = test system: isolated rat soleus muscles exposed to tubocurarine; assay: Recovery of nerve-stimulated contractile force in isolated rat soleus nerve-muscle preparation after tubocurarine; details: tubocurarine 115 nM, after 40 mins of compound exposure
Experimental: The current disclosure relates to compounds that inhibit CIC-1 ion channels and increase muscle excitability and thereby improve muscle function in clinical conditions where muscle activation is failing. Such conditions result in loss of contractile function of skeletal muscle, weakness and excessive fatigue. In this series of experiments the compounds were tested for their ability to restore contractile function of isolated rat muscle when the neuromuscular transmission had been compromised akin to neuromuscular disorders.
Experimentally, soleus muscles from 4-5 week old rats were isolated with the motor nerve remaining attached. The nerve-muscle preparations were mounted in experimental setups that enabled electrical stimulation of the motor nerve. Stimulation of the motor nerve led to activation of the muscle fibres and ensuing force production that was recorded. The nerve-muscle preparations were also in these experiments incubated in the standard Krebs Ringer (see example 15) and the solution was heated to 30° C. and continuously equilibrated with a mixture of 95% O2 and 5% CO2, PH ˜7.4.
After mounting the nerve-muscle preparation in the experimental setup, the contractile function of the muscle was initially assessed under the control conditions. Sub-maximal concentration of tubocurarine (115 nM), an acetylcholine receptor antagonist, was then added to the experimental bath to impose partial inhibition of the ability of the motor nerve to activate the muscle fibres. The experimental condition mimics the failing neuromuscular transmission in a range of neuromuscular disorders. After addition of tubocurarine the contractile force declined over the next 90 minutes to 10-50% of the control force. The test compound was then added to obtain the required compound concentration in the bath and the contractile force recovered was measured. To quantify the ability of the compound to restore force the percentage of the initial force that was restored was determined after 40 mins of compound exposure and the point increase is reported in Table 2.

CIC-1 ion channel = target: T1, CIC-1 ion channel (Rattus norvegicus, UniProt P35524); assay: Electrophysiological measurement (Gm, three micro-electrodes) of compound inhibition of CIC-1 in rat soleus muscle fibres; assay type: cell-based; details: Gm in whole rat soleus muscle fibres, approx. 30° C., four increasing compound concentrations
T1 construct: from tissue; host or cells: intact soleus muscle of 12-14 week old Wistar rats
T1 sequence (P35524 1-994): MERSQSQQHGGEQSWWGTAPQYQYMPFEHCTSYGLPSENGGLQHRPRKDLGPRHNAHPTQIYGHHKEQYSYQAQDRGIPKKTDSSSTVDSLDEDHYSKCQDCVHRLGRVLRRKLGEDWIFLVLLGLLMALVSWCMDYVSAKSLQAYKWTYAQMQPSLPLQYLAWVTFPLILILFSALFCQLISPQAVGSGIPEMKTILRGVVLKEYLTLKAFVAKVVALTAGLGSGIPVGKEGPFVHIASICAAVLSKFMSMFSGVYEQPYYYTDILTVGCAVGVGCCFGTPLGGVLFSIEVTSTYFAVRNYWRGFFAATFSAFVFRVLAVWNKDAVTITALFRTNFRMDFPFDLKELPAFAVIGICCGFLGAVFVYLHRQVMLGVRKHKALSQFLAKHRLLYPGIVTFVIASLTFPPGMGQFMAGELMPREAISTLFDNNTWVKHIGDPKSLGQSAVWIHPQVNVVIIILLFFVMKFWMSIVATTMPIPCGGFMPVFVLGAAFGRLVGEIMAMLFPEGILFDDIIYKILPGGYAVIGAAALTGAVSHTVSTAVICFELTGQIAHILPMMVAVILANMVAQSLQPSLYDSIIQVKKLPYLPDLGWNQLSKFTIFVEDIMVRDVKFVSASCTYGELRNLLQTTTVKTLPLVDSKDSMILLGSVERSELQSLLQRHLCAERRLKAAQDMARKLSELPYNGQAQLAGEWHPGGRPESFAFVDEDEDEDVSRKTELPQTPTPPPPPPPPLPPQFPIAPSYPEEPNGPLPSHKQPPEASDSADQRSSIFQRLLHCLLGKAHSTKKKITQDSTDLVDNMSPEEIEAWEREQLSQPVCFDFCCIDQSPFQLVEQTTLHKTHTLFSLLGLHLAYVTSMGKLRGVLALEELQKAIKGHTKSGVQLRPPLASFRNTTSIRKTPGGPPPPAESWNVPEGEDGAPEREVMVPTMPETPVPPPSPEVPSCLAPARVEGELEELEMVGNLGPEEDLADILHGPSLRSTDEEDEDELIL
Experimental: Apparent CIC-1 affinity was reported by the concentration of compound at which 50% of the compound's full inhibition of CIC-1 was observed (EC50).
Experimentally, Gm was measured in individual fibres of whole rat soleus muscles using a three micro-electrodes technique described in this example and in full detail elsewhere (Riisager et al., Determination of cable parameters in skeletal muscle fibres during repetitive firing of action potentials. Journal of Physiology, 2014, 592, 4417-4429). Briefly, intact rat soleus muscles were dissected out from 12-14 week old Wistar rats and placed in an experimental chamber that was perfused with a standard Krebs Ringer solution containing 122 mM NaCl, 25 mM NaHCO3, 2.8 mM KCl, 1.2 mM KH2PO4, 1.2 mM MgSO4, 1.3 mM CaCl2), 5.0 mM D-glucose. During experiments, the solution was kept at approx. 30° C. and continuously equilibrated with a mixture of 95% O2 and 5% CO2, PH ˜7.4. The experimental chamber was placed in Nikon upright microscope that was used to visualize individual muscle fibres and the three electrodes (glass pipettes filled with 2 M potassium citrate). For Gm measurements, the electrodes were inserted into the same fibre with known inter-electrode distances of 0.35-0.5 mm (V1-V2, X1) and 1.1-1.5 mm (V1-V3, X3). The membrane potential of the impaled muscle fibre was recorded by all electrodes. Two of the electrodes were furthermore used to inject 50 ms current pulses of −30 nA. […] The steady state voltage deflection at each distance was divided by the magnitude of current injected (−30 nA) and the resulting transfer resistances were plotted against inter-electrode distance and the data was fitted to a mono-exponential function from which Gm could be calculated using linear cable theory.
To establish a dose response relationship, Gm was first determined in 10 muscle fibres in the absence of compound and then at four increasing compound concentrations with Gm determinations in 5-10 fibres at each concentration. The average Gm values at each concentration were plotted against compound concentration and the data was fitted to sigmoidal function to obtain an EC50 value.

Lewis rats = assay: In situ isometric hindlimb force in anaesthetised rats under partial neuromuscular block by Cisatracurium; assay type: in vivo, rat; details: sodium salt, 80 Hz stimulation, Cisatracurium infusion
Experimental: Isometric hindlimb force was measured in 12-week old female Lewis rats in the presence and absence of compound.
Rats were placed under anaesthesia with isoflurane (2-4%), intubated and subsequently connected to a micro ventilator (Microvent 1, Hallowell EMC, US). Two stimulation electrodes were inserted through the skin to stimulate the sciatic nerve. A small incision was made proximal to the ankle, to expose the Achilles tendon, which was tied by cotton string, and connected to a force transducer (Fort250, World Precision Instruments) with adjustable position (Vernier control). The Achilles tendon was then cut distal to the attached cotton string. […]
Muscle contractile properties were assessed by applying an electrical current (under supramaximal voltage conditions) to the nerve and recording the force generated by the muscle. The muscle was stretched until maximal force was obtained, when assessed by 2 Hz stimulation. Isometric force was measured every 30 seconds at 12 Hz (Twitch), 10 pulses, and at every 5 minutes at 80 Hz (Tetanic) for 1 second (80 pulses). […] The effect of test article was assessed on its ability to increase force generated from the stimulation pattern applied. The effect was assessed in the ability to increase force per se (tetanic, 80 Hz, stimulation), and the ratio between individual twitch peaks (12 Hz stimulation). […]

Row | Compound | Point increase, percentage of initial force that was restored ([1]; test compound 50 μM) [%] | EC50 (CIC-1 ion channel) [µM] | Point increase, percentage of initial force that was restored ([1]; test compound 10 μM) [%] | other results
1 | COc1c(C)cc(F)c(OC)c1C(=O)O [Compound A-1, 3-fluoro-2,6-dimethoxy-5-methylbenzoic acid] | 19 | – | – | –
2 | COc1c(F)cc(Br)c(OC)c1C(=O)O [Compound A-2, 3-bromo-5-fluoro-2,6-dimethoxybenzoic acid] | – | – | – | Point increase, percentage of initial force that was restored ([1]; test compound 100 μM): 16%
3 | COc1c(Cl)cc(Cl)c(OC)c1C(=O)O [Compound A-3, 3,5-Dichloro-2,6-dimethoxybenzoic acid] | 46 | 7.4 | – | –
4 | Cc1cc(Cl)c(OC(F)(F)F)c(C(=O)O)c1C [Compound A-4, 3-chloro-5,6-dimethyl-2-(trifluoromethoxy)benzoic acid] | – | 1.7 | 23 | –
5 | Cc1cc(Cl)c(OC2CC2)c(C(=O)O)c1C [Compound A-5, 3-chloro-2-cyclopropoxy-5,6-dimethylbenzoic acid] | 48 | 6.6 | – | –
6 | COc1c(Cl)cc(C)c(Cl)c1C(=O)O [Compound A-6, 2,5-dichloro-6-methoxy-3-methylbenzoic acid] | – | 5.8 | 28 | –
7 | COc1c(C)cc(Cl)c(OC)c1C(=O)O [Compound A-7, 3-chloro-2,6-dimethoxy-5-methylbenzoic acid] | 44 | 5.3 | – | increase in tetanic force (Lewis rats; 2.5 mg/kg i.v. in PBS): 27%
8 | CSc1c(Cl)cc(C)c(C)c1C(=O)O [Compound A-8, 3-chloro-5,6-dimethyl-2-(methylsulphanyl)benzoic acid] | – | 3.2 | 24 | –
9 | Cc1cc(Cl)c(OC(F)F)c(C(=O)O)c1C [Compound A-9, 3-chloro-2-(difluoromethoxy)-5,6-dimethylbenzoic acid] | 50 | 4.3 | – | –
10 | Cc1cc(Cl)c(OCF)c(C(=O)O)c1C [Compound A-10, 3-chloro-2-(fluoromethoxy)-5,6-dimethylbenzoic acid] | – | 4.1 | 21 | –
11 | COc1c(F)cc(C)c(C)c1C(=O)O [Compound A-11, 3-fluoro-2-methoxy-5,6-dimethylbenzoic acid] | 25 | – | – | –
12 | CCOc1c(Cl)cc(C)c(C)c1C(=O)O [Compound A-12, 3-chloro-2-ethoxy-5,6-dimethylbenzoic acid] | 39 | – | – | –
13 | COc1c(Br)cc(C)c(C)c1C(=O)O [Compound A-13, 3-bromo-2-methoxy-5,6-dimethylbenzoic acid] | – | 4.4 | 29 | –
14 | COc1c(Cl)cc(C)c(C)c1C(=O)O [Compound A-14, 3-chloro-2-methoxy-5,6-dimethylbenzoic acid] | 44 | 3.2 | – | increase in tetanic force (Lewis rats; 10 mg/kg p.o. in PBS): 45%
